Assay [1] concerns 4th stage larvae (L4) of Dirofilaria immitis. As to the kind of experiment: Dirofilaria immitis, L4 Stage (DiL4) In Vitro Assay. The class given is cell-based. Particulars: Dirofilaria immitis, 72 h, read-out: DiL4 Minimum Effective Dose (MED), approximately 72 hours incubation; L4 larvae assessed for survival or paralysis.
Assay [2] relates to microfilariae of Dirofilaria immitis. As to the kind of experiment: Dirofilaria immitis, Microfilaria (DiMF) In vitro Assay. The class given is cell-based. The following applies: 72 h, read-out: DiMF Minimum Effective Dose (MED), approximately 72 hours incubation, microfilariae assessed for survival or paralysis.

The structures appear in SMILES notation.

On to `Cc1cc(C2CC2)n(Cc2ccc(C[C@H]3OC(=O)[C@H](CC(C)C)N(C)C(=O)[C@@H](C)OC(=O)[C@H](CC(C)C)N(C)C(=O)[C@@H](Cc4ccc(Cn5nc(C)cc5C5CC5)cc4)OC(=O)[C@H](CC(C)C)N(C)C(=O)[C@@H](C)OC(=O)[C@H](CC(C)C)N(C)C3=O)cc2)n1` [Example 1b-181, (3S,6R,9S,12R,15S,18R,21S,24R)-6,18-bis(4-((5-cyclopropyl-3-methyl-1H-pyrazol-1-yl)methyl)benzyl)-3,9,15,21-tetraisobutyl-4,10,12,16,22,24-hexamethyl-1,7,13,19-tetraoxa-4,10,16,22-tetraazacyclotetracosan-2,5,8,11,14,17,20,23-octaone], for which the minimal effective concentration lay in the range of 0.001 to 0.01 µM in assay [1] and 0.01 to 0.1 µM in assay [2].

With `CC(C)C[C@H]1C(=O)O[C@H](Cc2ccc(Cn3cc(COC(C)C)cn3)cc2)C(=O)N(C)[C@@H](CC(C)C)C(=O)O[C@H](C)C(=O)N(C)[C@@H](CC(C)C)C(=O)O[C@H](Cc2ccc(Cn3cc(COC(C)C)cn3)cc2)C(=O)N(C)[C@@H](CC(C)C)C(=O)O[C@H](C)C(=O)N1C` [Example 1b-184, (3S,6R,9S,12R,15S,18R,21S,24R)-3,9,15,21-tetraisobutyl-6,18-bis(4-((4-(isopropoxymethyl)-1H-pyrazol-1-yl)methyl)benzyl)-4,10,12,16,22,24-hexamethyl-1,7,13,19-tetraoxa-4,10,16,22-tetraazacyclotetracosan-2,5,8,11,14,17,20,23-octaone], the minimal effective concentration in assay [1] and in assay [2] was 0.001 to 0.01 µM in each case.

Regarding `CCCc1ccnn1Cc1ccc(C[C@H]2OC(=O)[C@H](CC(C)C)N(C)C(=O)[C@@H](C)OC(=O)[C@H](CC(C)C)N(C)C(=O)[C@@H](Cc3ccc(Cn4nccc4CCC)cc3)OC(=O)[C@H](CC(C)C)N(C)C(=O)[C@@H](C)OC(=O)[C@H](CC(C)C)N(C)C2=O)cc1` [Example 1b-205, (3S,6R,9S,12R,15S,18R,21S,24R)-3,9,15,21-tetraisobutyl-4,6,10,16,18,22-hexamethyl-12,24-bis(4-((5-propyl-1H-pyrazol-1-yl)methyl)benzyl)-1,7,13,19-tetraoxa-4,10,16,22-tetraazacyclotetracosan-2,5,8,11,14,17,20,23-octaone], the minimal effective concentration lay within 0.0001 to 0.001 µM in assay [1] and 0.001 to 0.01 µM in assay [2].

Regarding `CC(C)Cc1ccnn1Cc1ccc(C[C@H]2OC(=O)[C@H](CC(C)C)N(C)C(=O)[C@@H](C)OC(=O)[C@H](CC(C)C)N(C)C(=O)[C@@H](Cc3ccc(Cn4nccc4CC(C)C)cc3)OC(=O)[C@H](CC(C)C)N(C)C(=O)[C@@H](C)OC(=O)[C@H](CC(C)C)N(C)C2=O)cc1` [Example 1b-209, (3S,6R,9S,12R,15S,18R,21S,24R)-3,9,15,21-tetraisobutyl-6,18-bis(4-((5-isobutyl-1H-pyrazol-1-yl)methyl)benzyl)-4,10,12,16, 22,24-hexamethyl-1,7,13,19-tetraoxa-4,10,16,22-tetraazacyclotetracosan-2,5,8,11,14,17,20,23-octaone], the values for the minimal effective concentration in assay [1] and in assay [2] were 0.0001 to 0.001 µM and 0.01 to 0.1 µM, respectively.

Take `CC(C)C[C@H]1C(=O)O[C@H](Cc2ccc(Cn3cc(C#N)cn3)cc2)C(=O)N(C)[C@@H](CC(C)C)C(=O)O[C@H](C)C(=O)N(C)[C@@H](CC(C)C)C(=O)O[C@H](Cc2ccccc2)C(=O)N(C)[C@@H](CC(C)C)C(=O)O[C@H](C)C(=O)N1C` [Example 2-10, 1-(4-(((2R,5S,8R,11S,14R,17S,20R,23S)-14-benzyl-5,11,17,23-tetraisobutyl-4,8,10,16,20,22-hexamethyl-3,6,9,12,15,18,21,24-octaoxo-1,7,13,19-tetraoxa-4,10,16,22-tetraazacyclotetracosan-2-yl)methyl)benzyl)-1H-pyrazole-4-carbonitrile]: the values for the minimal effective concentration in assay [1] and in assay [2] were 0.0001 to 0.001 µM and 0.001 to 0.01 µM, respectively.

Consider `CC(C)C[C@H]1C(=O)O[C@H](Cc2ccc(Cn3cc(Cl)cn3)cc2)C(=O)N(C)[C@@H](CC(C)C)C(=O)O[C@H](C)C(=O)N(C)[C@@H](CC(C)C)C(=O)O[C@H](Cc2ccccc2)C(=O)N(C)[C@@H](CC(C)C)C(=O)O[C@H](C)C(=O)N1C` [Example 2-25, (3S,6R,9S,12R,15S,18R,21S,24R)-6-benzyl-18-(4-((4-chloro-1H-pyrazol-1-yl)methyl)benzyl)-3,9,15,21-tetraisobutyl-4,10,12,16,22,24-hexamethyl-1,7,13,19-tetraoxa-4,10,16,22-tetraazacyclotetracosan-2,5,8,11,14,17,20,23-octaone], for which the minimal effective concentration in assay [1] was in the range of 0.0001 to 0.001 µM; in assay [2], 0.001 to 0.01 µM.

As for `CC(C)C[C@H]1C(=O)O[C@H](Cc2ccc(Cn3cc(I)cn3)cc2)C(=O)N(C)[C@@H](CC(C)C)C(=O)O[C@H](C)C(=O)N(C)[C@@H](CC(C)C)C(=O)O[C@H](Cc2ccccc2)C(=O)N(C)[C@@H](CC(C)C)C(=O)O[C@H](C)C(=O)N1C` [Example 2-41, (3S,6R,9S,12R,15S,18R,21S,24R)-6-benzyl-18-(4-((4-iodo-1H-pyrazol-1-yl)methyl)benzyl)-3,9,15,21-tetraisobutyl-4,10,12,16,22,24-hexamethyl-1,7,13,19-tetraoxa-4,10,16,22-tetraazacyclotetracosan-2,5,8,11,14,17,20,23-octaone], the minimal effective concentration lay within 0.0001 to 0.001 µM in assay [1] and 0.001 to 0.01 µM in assay [2].

For `CC(C)C[C@H]1C(=O)O[C@H](Cc2ccc(Cn3nc(C(F)(F)F)cc3C(F)(F)F)cc2)C(=O)N(C)[C@@H](CC(C)C)C(=O)O[C@H](C)C(=O)N(C)[C@@H](CC(C)C)C(=O)O[C@H](Cc2ccccc2)C(=O)N(C)[C@@H](CC(C)C)C(=O)O[C@H](C)C(=O)N1C` [Example 2-55, (3S,6R,9S,12R,15S,18R,21S,24R)-6-benzyl-18-(4-((3,5-bis(trifluoromethyl)-1H-pyrazol-1-yl)methyl)benzyl)-3,9,15,21-tetraisobutyl-4,10,12,16,22,24-hexamethyl-1,7,13,19-tetraoxa-4,10,16,22-tetraazacyclotetracosan-2,5,8,11,14,17,20,23-octaone], the figures for the minimal effective concentration in assay [1] and in assay [2] were 0.0001 to 0.001 µM and 0.001 to 0.01 µM, respectively.

In the case of `CC(C)C[C@H]1C(=O)O[C@H](Cc2ccc(Cn3nc(C#N)cc3C#N)cc2)C(=O)N(C)[C@@H](CC(C)C)C(=O)O[C@H](C)C(=O)N(C)[C@@H](CC(C)C)C(=O)O[C@H](Cc2ccccc2)C(=O)N(C)[C@@H](CC(C)C)C(=O)O[C@H](C)C(=O)N1C` [Example 2-62, 1-(4-(((2R,5S,8R,11S,14R,17S,20R,23S)-14-benzyl-5,11,17,23-tetraisobutyl-4,8,10,16,20,22-hexamethyl-3,6,9,12,15,18,21,24-octaoxo-1,7,13,19-tetraoxa-4,10,16,22-tetraazacyclotetracosan-2-yl)methyl)benzyl)-1H-pyrazole-3,5-dicarbonitrile], the minimal effective concentration in assay [1] lay in the range of 0.0001 to 0.001 µM; in assay [2], 0.001 to 0.01 µM.
